Experimental data: patent publication US20050049245A1, “Heteroaryl-ethanolamine derivatives as antiviral agents” (priority 2002, published 2005)
Read-outs that look alike come from different tables or passages of the source.

Legend:
VZV polymerase = VZV polymerase (Varicella-zoster virus, UniProt P09252); experiment: VZV polymerase assay (Table 1); type: biochemical; details: VZV polymerase; read-out: Polymerase IC50 VZV
HSV polymerase = HSV polymerase (Human herpesvirus 1, UniProt P04293); experiment: HSV polymerase assay (Table 1); type: biochemical; details: HSV polymerase; read-out: Polymerase IC50 HSV
HCMV polymerase = biological target: T1, HCMV polymerase (Human cytomegalovirus, UniProt P08546); experiment: HCMV polymerase scintillation proximity assay (SPA); type: biochemical
T1 construct: made in house; host or cells: recombinant baculovirus-infected SF-9 cells
Method: The HCMV polymerase assay is performed using a scintillation proximity assay (SPA) as described in several references, such as N. D. Cook, et al., Pharmaceutical Manufacturing International, pages 49-53 (1992); KY Takeuchi, Laboratory Practice, September issue (1992); U.S. Pat. No. 4,568,649 (1986); which are incorporated by reference herein. Reactions are performed in 96-well plates. The assay is conducted in 100 yl volume with 5.4 mM HEPES (pH 7.5), 11.7 mM KCl, 4.5 mM MgCl2, 0.36 mg/ml BSA, and 90 nM ^3H-dTTP. Assays are run with and without CHAPS, (3-[(3-Cholamidopropyl)-dimethylammonio]-1-propane-sulfonate) at a final concentration of 2 mM. HCMV polymerase is diluted in enzyme dilution buffer containing 50% glycerol, 250 mM NaCl, 10 mM HEPES (pH 7.5), 100 μg/ml BSA, and 0.01% sodium azide. The HCMV polymerase, which is expressed in recombinant baculovirus-infected SF-9 cells and purified according to literature procedures, is added at 10% (or 10 μl) of the final reaction volume, i.e., 100 μl. Compounds are diluted in 50% DMSO and 10 μl are added to each well. Control wells contain an equivalent concentration of DMSO. Unless noted otherwise, reactions are initiated via the addition of 6 nM biotinylated poly(dA)-oligo(dT) template/primer to reaction mixtures containing the enzyme, substrate, and compounds of interest. Plates are incubated in a 25° C. or 37° C. H2O bath and terminated via the addition of 40 μl/reaction of 0.5 M EDTA (pH 8) per well. Reactions are terminated within the time-frame during which substrate incorporation is linear and varied depending upon the enzyme and conditions used, i.e., 30 min. for HCMV polymerase. Ten (10) μl of streptavidin-SPA beads (20 mg/ml in PBS/10% glycerol) are added following termination of the reaction. Plates are incubated 10 min. at 37° C., then equilibrated to room temperature, and counted on a Packard Topcount. Linear regressions are performed and IC50's are calculated using computer software.
A modified version of the above HCMV polymerase assay is performed as described above, but with the following changes: Compounds are diluted in 100% DMSO until final dilution into assay buffer. In the previous assay, compounds are diluted in 50% DMSO. 4.5 mM Dithiothreitol (DTT) is added to the polymerase buffer.
All results are listed as Polymerase IC50 ([…]) values. In Table 1, the term “n.d.” refers to activity data not determined.

[1] = HCMV polymerase, SPA, read-out: Polymerase IC50 HCMV

Chain of HSV polymerase (P04293 whole entry): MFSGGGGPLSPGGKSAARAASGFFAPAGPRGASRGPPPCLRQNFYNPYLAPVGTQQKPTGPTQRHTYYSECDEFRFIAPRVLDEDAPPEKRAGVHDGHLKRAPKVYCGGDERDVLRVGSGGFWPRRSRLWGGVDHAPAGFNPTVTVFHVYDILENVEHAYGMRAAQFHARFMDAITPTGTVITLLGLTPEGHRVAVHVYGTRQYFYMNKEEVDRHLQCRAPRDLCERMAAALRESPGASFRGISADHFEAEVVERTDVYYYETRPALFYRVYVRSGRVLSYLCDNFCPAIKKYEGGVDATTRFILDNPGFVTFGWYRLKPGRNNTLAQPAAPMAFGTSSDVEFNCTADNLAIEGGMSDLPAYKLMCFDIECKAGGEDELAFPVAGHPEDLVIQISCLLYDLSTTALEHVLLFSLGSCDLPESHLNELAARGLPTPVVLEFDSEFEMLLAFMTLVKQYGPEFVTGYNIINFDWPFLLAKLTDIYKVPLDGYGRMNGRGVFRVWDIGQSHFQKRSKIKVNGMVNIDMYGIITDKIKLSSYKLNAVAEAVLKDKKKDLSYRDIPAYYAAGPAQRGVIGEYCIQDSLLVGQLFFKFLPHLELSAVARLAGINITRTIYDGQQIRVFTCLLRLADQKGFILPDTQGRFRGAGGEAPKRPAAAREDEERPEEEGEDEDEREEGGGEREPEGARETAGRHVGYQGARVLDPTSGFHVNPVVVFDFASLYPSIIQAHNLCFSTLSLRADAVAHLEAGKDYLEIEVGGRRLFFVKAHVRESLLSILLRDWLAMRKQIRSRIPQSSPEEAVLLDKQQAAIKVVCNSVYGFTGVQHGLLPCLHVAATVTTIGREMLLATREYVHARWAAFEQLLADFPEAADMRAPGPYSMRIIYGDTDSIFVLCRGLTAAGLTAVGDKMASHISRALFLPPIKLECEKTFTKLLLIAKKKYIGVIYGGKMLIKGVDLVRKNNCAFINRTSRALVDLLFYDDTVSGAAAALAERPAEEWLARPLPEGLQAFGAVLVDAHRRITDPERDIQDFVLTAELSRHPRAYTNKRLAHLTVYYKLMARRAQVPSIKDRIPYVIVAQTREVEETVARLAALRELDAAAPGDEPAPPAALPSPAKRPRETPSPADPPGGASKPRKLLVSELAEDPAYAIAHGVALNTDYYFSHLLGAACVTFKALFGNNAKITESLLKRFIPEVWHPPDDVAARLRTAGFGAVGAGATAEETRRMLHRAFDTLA
T1 sequence (P08546 whole entry): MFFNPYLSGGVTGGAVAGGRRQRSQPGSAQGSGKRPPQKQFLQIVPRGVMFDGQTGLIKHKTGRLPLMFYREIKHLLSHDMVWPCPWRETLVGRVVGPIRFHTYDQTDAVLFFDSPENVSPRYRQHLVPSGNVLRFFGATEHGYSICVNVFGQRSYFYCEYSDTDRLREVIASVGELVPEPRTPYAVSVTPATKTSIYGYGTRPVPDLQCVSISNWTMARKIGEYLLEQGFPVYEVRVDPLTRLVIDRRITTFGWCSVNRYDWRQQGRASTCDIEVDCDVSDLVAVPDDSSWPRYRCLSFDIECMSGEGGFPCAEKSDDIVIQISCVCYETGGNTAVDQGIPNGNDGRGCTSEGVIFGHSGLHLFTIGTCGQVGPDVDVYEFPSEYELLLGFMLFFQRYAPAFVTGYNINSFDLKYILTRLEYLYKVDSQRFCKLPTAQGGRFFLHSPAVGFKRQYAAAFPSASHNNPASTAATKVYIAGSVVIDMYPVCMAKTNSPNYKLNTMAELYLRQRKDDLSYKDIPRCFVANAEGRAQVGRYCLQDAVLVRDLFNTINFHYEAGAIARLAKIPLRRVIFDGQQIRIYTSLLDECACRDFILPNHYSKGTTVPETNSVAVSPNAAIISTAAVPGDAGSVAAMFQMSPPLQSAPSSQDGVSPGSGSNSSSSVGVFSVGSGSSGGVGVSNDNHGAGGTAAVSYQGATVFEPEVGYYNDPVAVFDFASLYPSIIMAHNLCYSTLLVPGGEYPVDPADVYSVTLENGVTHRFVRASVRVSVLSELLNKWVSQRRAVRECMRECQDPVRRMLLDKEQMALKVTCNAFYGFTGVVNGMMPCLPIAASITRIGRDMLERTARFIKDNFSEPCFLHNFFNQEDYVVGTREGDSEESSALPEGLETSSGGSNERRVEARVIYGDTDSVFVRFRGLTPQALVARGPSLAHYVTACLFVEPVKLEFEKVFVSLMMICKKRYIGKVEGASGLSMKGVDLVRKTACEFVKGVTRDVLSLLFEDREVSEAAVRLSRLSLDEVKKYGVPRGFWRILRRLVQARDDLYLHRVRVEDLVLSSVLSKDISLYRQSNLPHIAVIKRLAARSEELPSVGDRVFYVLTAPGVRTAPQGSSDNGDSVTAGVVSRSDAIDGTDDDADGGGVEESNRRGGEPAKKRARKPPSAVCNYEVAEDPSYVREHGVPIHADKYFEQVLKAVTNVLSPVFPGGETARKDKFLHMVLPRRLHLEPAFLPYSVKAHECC
Chain of VZV polymerase (P09252 whole entry): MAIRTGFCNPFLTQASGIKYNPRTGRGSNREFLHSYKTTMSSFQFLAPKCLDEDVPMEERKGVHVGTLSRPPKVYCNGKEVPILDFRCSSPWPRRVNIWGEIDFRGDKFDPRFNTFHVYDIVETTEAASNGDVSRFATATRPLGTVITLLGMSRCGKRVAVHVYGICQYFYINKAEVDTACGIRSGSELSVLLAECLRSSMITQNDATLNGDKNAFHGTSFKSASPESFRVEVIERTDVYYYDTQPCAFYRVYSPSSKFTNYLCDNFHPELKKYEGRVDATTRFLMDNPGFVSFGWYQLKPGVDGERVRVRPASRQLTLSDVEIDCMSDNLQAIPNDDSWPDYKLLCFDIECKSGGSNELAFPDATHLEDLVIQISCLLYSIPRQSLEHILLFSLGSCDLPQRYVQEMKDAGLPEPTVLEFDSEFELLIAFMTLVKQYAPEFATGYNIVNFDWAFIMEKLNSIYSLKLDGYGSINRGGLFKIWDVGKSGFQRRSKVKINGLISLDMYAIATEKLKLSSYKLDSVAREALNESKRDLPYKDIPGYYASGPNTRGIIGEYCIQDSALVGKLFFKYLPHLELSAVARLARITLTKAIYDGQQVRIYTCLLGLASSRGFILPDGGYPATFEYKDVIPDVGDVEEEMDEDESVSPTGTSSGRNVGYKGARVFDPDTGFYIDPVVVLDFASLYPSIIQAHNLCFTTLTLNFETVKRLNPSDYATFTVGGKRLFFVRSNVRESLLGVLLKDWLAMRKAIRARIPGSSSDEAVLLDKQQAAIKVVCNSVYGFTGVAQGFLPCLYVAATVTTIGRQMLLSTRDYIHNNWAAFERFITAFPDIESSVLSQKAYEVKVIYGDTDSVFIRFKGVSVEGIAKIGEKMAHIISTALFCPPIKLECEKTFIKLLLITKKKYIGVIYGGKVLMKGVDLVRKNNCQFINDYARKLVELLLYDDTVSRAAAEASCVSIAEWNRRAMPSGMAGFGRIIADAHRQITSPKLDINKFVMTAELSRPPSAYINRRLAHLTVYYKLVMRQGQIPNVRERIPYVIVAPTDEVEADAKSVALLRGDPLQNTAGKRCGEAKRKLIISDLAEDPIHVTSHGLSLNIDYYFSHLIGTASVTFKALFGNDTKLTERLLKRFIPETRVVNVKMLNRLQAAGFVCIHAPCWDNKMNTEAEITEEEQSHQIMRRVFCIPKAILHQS

Cc1ccc(C(O)CN(C)Cc2cc3c(=O)c(C(=O)NCc4ccc(Cl)cc4)cn(C)c3s2)o1 (racemic) [Example 3, rac-N-(4-Chlorobenzyl)-2-(((2-hydroxy-2-(5-methyl-2-furyl)ethyl)(methyl)amino)methyl)-7-methyl-4-oxo-4,7-dihydrothieno[2,3-b]pyridine-5-carboxamide]
IC50 (VZV polymerase): 130 nM | IC50 (HSV polymerase): 260 nM | melting point: 137 to 140 °C | IC50 (HCMV polymerase; [1]): 70 nM

CN(Cc1cc2c(=O)c(C(=O)NCc3ccc(Cl)cc3)cn(C)c2s1)CC(O)c1ccoc1 (racemic) [Example 4, rac-N-(4-Chlorobenzyl)-2-(((2-(3-furyl)-2-hydroxyethyl)(methyl)amino)methyl)-7-methyl-4-oxo-4,7-dihydrothieno[2,3-b]pyridine-5-carboxamide]
IC50 (VZV polymerase): 390 nM | IC50 (HSV polymerase): 840 nM | melting point: 151 to 153 °C | IC50 (HCMV polymerase; [1]): 250 nM

CN(Cc1cc2c(=O)c(C(=O)NCc3ccc(Cl)cc3)cn(C)c2s1)CC(O)c1cc2ccccc2o1 (racemic) [Example 5, rac-2-(((2-(1-Benzofuran-2-yl)-2-hydroxyethyl)(methyl)amino)methyl)-N-(4-chlorobenzyl)-7-methyl-4-oxo-4,7-dihydrothieno[2,3-b]pyridine-5-carboxamide]
IC50 (VZV polymerase): 10 nM | IC50 (HSV polymerase): 30 nM | melting point: 212 to 214 °C | IC50 (HCMV polymerase; [1]): 10 nM

CN(Cc1cc2c(=O)c(C(=O)NCc3ccc(Cl)cc3)cn(C)c2s1)CC(O)c1ccc[nH]1 (racemic) [Example 7, rac-N-(4-Chlorobenzyl)-2-(((2-hydroxy-2-(1H-pyrrol-2-yl)ethyl)(methyl)amino)-methyl)-7-methyl-4-oxo-4,7-dihydrothieno[2,3-b]pyridine-5-carboxamide]
IC50 (VZV polymerase): 330 nM | IC50 (HSV polymerase): 980 nM | melting point: 169 to 172 °C (dec.) | IC50 (HCMV polymerase; [1]): 300 nM

CN(Cc1cc2c(=O)c(C(=O)NCc3ccc(Cl)cc3)cn(C)c2s1)CC(O)c1cccn1C (racemic) [Example 8, rac-N-(4-Chlorobenzyl)-2-(((2-hydroxy-2-(1-methyl-1H-pyrrol-2-yl)ethyl)-(methyl)amino)methyl)-7-methyl-4-oxo-4,7-dihydrothieno[2,3-b]pyridine-5-carboxamide]
IC50 (VZV polymerase): 320 nM | IC50 (HSV polymerase): 850 nM | melting point: 140 to 145 °C | IC50 (HCMV polymerase; [1]): 260 nM

CN(Cc1cc2c(=O)c(C(=O)NCc3ccc(Cl)cc3)cn(C)c2s1)CC(O)c1c[nH]cn1 (racemic) [Example 10, rac-N-(4-Chlorobenzyl)-2-(((2-hydroxy-2-(1H-imidazol-4-yl)ethyl)(methyl)amino)methyl)-7-methyl-4-oxo-4,7-dihydrothieno[2,3-b]pyridine-5-carboxamide]
IC50 (VZV polymerase): 440 nM | IC50 (HSV polymerase): 1970 nM | melting point: 164 to 169 °C | IC50 (HCMV polymerase; [1]): 450 nM

CN(Cc1cc2c(=O)c(C(=O)NCc3ccc(Cl)cc3)cn(C)c2s1)CC(O)c1c[nH]c2ccccc12 (racemic) [Example 11, rac-N-(4-Chlorobenzyl)-2-(((2-hydroxy-2-(1H-indol-3-yl)ethyl)(methyl)amino)-methyl)-7-methyl-4-oxo-4,7-dihydrothieno[2,3-b]pyridine-5-carboxamide]
IC50 (VZV polymerase): 90 nM | IC50 (HSV polymerase): 200 nM | melting point: 120 to 123 °C | IC50 (HCMV polymerase; [1]): 90 nM

Cc1cc(C(O)CN(C)Cc2cc3c(=O)c(C(=O)NCc4ccc(Cl)cc4)cn(C)c3s2)c(C)o1 (racemic) [Example 12, rac-N-(4-Chlorobenzyl)-2-(((2-(2,5-dimethyl-3-furyl)-2-hydroxyethyl)(methyl)-amino)methyl)-7-methyl-4-oxo-4,7-dihydrothieno[2,3-b]pyridine-5-carboxamide]
melting point: 167 to 172 °C | IC50 (HCMV polymerase; [1]): 280 nM

CN(Cc1cc2c(=O)c(C(=O)NCc3ccc(Cl)cc3)cn(C)c2s1)CC(O)c1csc2ccccc12 (racemic) [Example 13, rac-2-(((2-(1-Benzothien-3-yl)-2-hydroxyethyl)(methyl)amino)methyl)-N-(4-chlorobenzyl)-7-methyl-4-oxo-4,7-dihydrothieno[2,3-b]pyridine-5-carboxamide]
IC50 (VZV polymerase): 440 nM | IC50 (HSV polymerase): 1920 nM | melting point: 213 to 219 °C (dec.) | IC50 (HCMV polymerase; [1]): 170 nM

CN(Cc1cc2c(=O)c(C(=O)NCc3ccc(Cl)cc3)cn(C)c2s1)CC(O)c1cc2ccccc2n1C (racemic) [Example 14, rac-N-(4-Chlorobenzyl)-2-(((2-hydroxy-2-(1-methyl-1H-indol-2-yl)ethyl)(methyl)-amino)methyl)-7-methyl-4-oxo-4,7-dihydrothieno[2,3-b]pyridine-5-carboxamide]
IC50 (VZV polymerase): 120 nM | IC50 (HSV polymerase): 530 nM | melting point: 128 to 132 °C (dec.) | IC50 (HCMV polymerase; [1]): 100 nM

CN(Cc1cc2c(=O)c(C(=O)NCc3ccc(Cl)cc3)cn(C)c2s1)CC(O)c1ccc(C#N)s1 (racemic) [Example 15, rac-N-(4-Chlorobenzyl)-2-(((2-(5-cyanothien-2-yl)-2-hydroxyethyl)(methyl)-amino)methyl)-7-methyl-4-oxo-4,7-dihydrothieno[2,3-b]pyridine-5-carboxamide]
melting point: 155 to 160 °C (dec.) | IC50 (HCMV polymerase; [1]): 240 nM

CN(Cc1cc2c(=O)c(C(=O)NCc3ccc(Cl)cc3)cn(C)c2s1)CC(O)c1nccs1 (racemic) [Example 16, rac-N-(4-Chlorobenzyl)-2-(((2-hydroxy-2-(1,3-thiazol-2-yl)ethyl)(methyl)amino)-methyl)-7-methyl-4-oxo-4,7-dihydrothieno[2,3-b]pyridine-5-carboxamide]
IC50 (VZV polymerase): 190 nM | IC50 (HSV polymerase): 450 nM | melting point: 129 to 133 °C | IC50 (HCMV polymerase): 200 nM

CN(Cc1cc2c(=O)c(C(=O)NCc3ccc(Cl)cc3)cn(C)c2s1)CC(O)c1ccn[nH]1 (racemic) [Example 18, rac-N-(4-Chlorobenzyl)-2-(((2-hydroxy-2-(1H-pyrazol-5-yl)ethyl)(methyl)amino)-methyl)-7-methyl-4-oxo-4,7-dihydrothieno[2,3-b]pyridine-5-carboxamide]
IC50 (VZV polymerase): 370 nM | IC50 (HSV polymerase): 910 nM | melting point: 177.5 to 178.6 °C | IC50 (HCMV polymerase; [1]): 350 nM

COCCn1cc(C(=O)NCc2ccc(Cl)cc2)c(=O)c2cc(CN(C)CC(O)c3cc4ccccc4o3)sc21 (racemic) [Example 24, rac-2-(((2-(1-Benzofuran-2-yl)-2-hydroxyethyl)(methyl)amino)methyl)-N-(4-chlorobenzyl)-7-(2-methoxyethyl)-4-oxo-4,7-dihydrothieno[2,3-b]pyridine-5-carboxamide]
melting point: 133 to 140 °C | IC50 (HCMV polymerase; [1]): 310 nM

Cc1cc(C(O)CN(C)Cc2cc3c(=O)c(C(=O)NCc4ccc(Cl)cc4)cn(C)c3s2)oc1C (racemic) [Example 30, rac-N-(4-Chlorobenzyl)-2-(((2-(4,5-dimethyl-2-furyl)-2-hydroxyethyl)(methyl)-amino)methyl)-7-methyl-4-oxo-4,7-dihydrothieno[2,3-b]pyridine-5-carboxamide]
IC50 (VZV polymerase): 200 nM | IC50 (HSV polymerase): 620 nM | melting point: 166 to 167 °C | IC50 (HCMV polymerase; [1]): 140 nM

CN(Cc1cc2c(=O)c(C(=O)NCc3ccc(Cl)cc3)cn(C)c2s1)CC(O)c1ccc(-c2ccccc2)o1 (racemic) [Example 31, rac-N-(4-Chlorobenzyl)-2-(((2-(5-phenyl-2-furyl)-2-hydroxyethyl)(methyl)-amino)methyl)-7-methyl-4-oxo-4,7-dihydrothieno[2,3-b]pyridine-5-carboxamide]
IC50 (VZV polymerase): 60 nM | IC50 (HSV polymerase): 120 nM | melting point: 177 to 178 °C | IC50 (HCMV polymerase; [1]): 70 nM

CN(Cc1cc2c(=O)c(C(=O)NCc3ccc(Cl)cc3)cn(C)c2s1)CC(O)c1ncc[nH]1 (racemic) [Example 36, rac-N-(4-Chlorobenzyl)-2-(((2-hydroxy-2-(1H-imidazol-2-yl)ethyl)(methyl)-amino)methyl)-7-methyl-4-oxo-4,7-dihydrothieno[2,3-b]pyridine-5-carboxamide]
melting point: 177.9 to 179.5 °C | IC50 (HCMV polymerase; [1]): 830 nM
